We go through 1 molecule from patent publication US20020107219A1, “Adenoviral vector containing cyclooxygenase-2 promoter and uses thereof” (priority 2000, published 2002).

Molecules are shown by their SMILES.

The format of the data set is in vivo, C57BL/6 mice. The text has this: To investigate the toxicity induced by the HSV-tk/GCV system, each group of ten C57BL/6 mice received a tail vein injection of AdCMV TK (10^9 pfu), Adcox2LTK (10^9 pfu) or phosphate-buffered saline on day 0. […] The mice were sacrificed on day 6 and the blood samples were collected to analyze total bilirubin, alanine aminotransferase (ALT), aspartate aminotransferase (AST) an d lactate dehydrogenase (LDH) at a veterinary laboratory (ANTECH Diagnostics, Farmingdale, N.Y.). For histopathological analysis, the major organs were fixed with 10% buffered formaldehyde, paraffin-embedded and cut in to 4 μm section, followed by deparaffinization and staining with hematoxylin and eosin.

For `Nc1nc(O)c2ncn(COC(CO)CO)c2n1` [GCV, ganciclovir], under “only GCV, without virus”, the “serum samples (total bilirubin, ALT, AST, LDH)” value is “did not show abnormality”. For the same molecule, the “liver histology (H and E)” value (without virus administration) is recorded as “appeared almost normal”.
